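Interpolation was linear, between the two tested concentrations surrounding the appropriate level; five concentrations were tested over 48 hours in 96-well plates. Here, GI50 denotes the concentration required for 50% inhibition of growth. Definition used: TGI = concentration required for complete inhibition of growth.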
Experiments:
Assay in all cases: NCI anticancer screen, dose series, 48 h
[1] = tested on: TK-10 renal
[2] = tested on: K-562 leukemia
[3] = tested on: OVCAR-5 ovarian
[4] = tested on: A549 NSCLC
[5] = tested on: OVCAR-3 ovarian
[6] = tested on: OVCAR-4 ovarian
[7] = tested on: NCI-H23 lung
[8] = tested on: U251 CNS
[9] = tested on: NCI-H460 lung
[10] = tested on: SF-295 CNS
[11] = tested on: T-47D breast
[12] = tested on: BT-549 breast
[13] = tested on: RPMI-8226 leukemia
[14] = tested on: HCC-2998 colon
[15] = tested on: MDA-MB-435
[16] = tested on: MDA-MB-231 breast
[17] = tested on: CAKI-1 renal
[18] = tested on: SNB-75 CNS
[19] = tested on: SK-MEL-5 melanoma
[20] = tested on: LOX IMVI melanoma
[21] = tested on: SNB-19 CNS
[22] = tested on: SK-MEL-28 melanoma
[23] = tested on: M14 melanoma
[24] = tested on: KM12 colon
[25] = tested on: 786-0 renal
[26] = tested on: HOP-92 NSCLC
[27] = tested on: HL-60(TB) leukemia
[28] = tested on: NCI-H226 lung
[29] = tested on: HS 578T breast
[30] = tested on: SK-OV-3 ovarian
[31] = tested on: SK-MEL-2 melanoma
[32] = tested on: MOLT-4 leukemia
[33] = tested on: SF-268 CNS
[34] = tested on: EKVX NSCLC
[35] = tested on: IGROV1 ovarian
[36] = tested on: UACC-62 melanoma
[37] = tested on: SN12C renal
[38] = tested on: NCI/ADR-RES ovarian
[39] = tested on: OVCAR-8 ovarian
[40] = tested on: UACC-257 melanoma
[41] = tested on: COLO 205 colon
[42] = tested on: UO-31 renal
[43] = tested on: HT29 colon
[44] = tested on: ACHN renal
[45] = tested on: RXF 393 renal
[46] = tested on: PC-3 prostate
[47] = tested on: HCT-116 colon
[48] = tested on: MCF7 breast
[49] = tested on: HCT-15 colon
[50] = tested on: CCRF-CEM leukemia
[51] = tested on: SF-539 CNS
[52] = tested on: MALME-3M melanoma
[53] = tested on: SR leukemia
[54] = tested on: A498 renal
[55] = tested on: DU-145 prostate
[56] = tested on: NCI-H522 lung
[57] = tested on: SW-620 colon
[58] = tested on: HOP-62 NSCLC

COc1cc(/C=C/C(=O)c2ccc(Nc3nc(Nc4ccc(F)cc4)nc(Nc4ccc(Cl)cc4)n3)cc2)cc(OC)c1OC
GI50 [1]: 19.8 µM | TGI [1]: 76.4 µM | GI50 [2]: 1.74 µM | TGI [2]: 8.19 µM | GI50 [3]: 12.6 µM | TGI [3]: 45.5 µM | GI50 [4]: 12.1 µM | TGI [4]: 99 µM | GI50 [5]: 4.14 µM | TGI [5]: 15.9 µM | GI50 [6]: 6.75 µM | TGI [6]: > 100 µM | GI50 [7]: 3.99 µM | TGI [7]: 20.7 µM | GI50 [8]: 3.19 µM | TGI [8]: > 34.7 µM | GI50 [9]: 4.3 µM | TGI [9]: 28 µM | GI50 [10]: 12.6 µM | TGI [10]: > 44.9 µM | GI50 [11]: 5.6 µM | TGI [11]: > 62.2 µM | GI50 [12]: 8.16 µM | TGI [12]: 59.3 µM | GI50 [13]: 0.811 µM | TGI [13]: 4.8 µM | GI50 [14]: 0.804 µM | TGI [14]: 2.3 µM | GI50 [15]: 7.6 µM | TGI [15]: > 26.4 µM | GI50 [16]: 5.77 µM | TGI [16]: > 37.9 µM | GI50 [17]: > 100 µM | TGI [17]: > 100 µM | GI50 [18]: 3.67 µM | TGI [18]: 38.7 µM | GI50 [19]: 4.16 µM | TGI [19]: 19 µM | GI50 [20]: 1.82 µM | TGI [20]: 4.84 µM | GI50 [21]: 18.9 µM | TGI [21]: > 100 µM | GI50 [22]: 1.82 µM | TGI [22]: 3.71 µM | GI50 [23]: 10.1 µM | TGI [23]: 43.5 µM | GI50 [24]: 3.35 µM | TGI [24]: 19.9 µM | GI50 [25]: 6.13 µM | TGI [25]: 17.8 µM | TGI [26]: 4.75 µM | GI50 [27]: 0.523 µM | TGI [27]: 3.23 µM | GI50 [28]: 3.63 µM | TGI [28]: 34.4 µM | GI50 [29]: 2.75 µM | TGI [29]: 11.9 µM | GI50 [30]: 46.8 µM | TGI [30]: > 100 µM | GI50 [31]: 5.51 µM | TGI [31]: 27 µM | GI50 [32]: 1.15 µM | TGI [32]: 3.6 µM | GI50 [33]: 9.23 µM | TGI [33]: 58.1 µM | GI50 [34]: > 24 µM | TGI [34]: > 100 µM | GI50 [35]: 4.66 µM | TGI [35]: 31.8 µM | GI50 [36]: 6.66 µM | TGI [36]: 23.7 µM | GI50 [37]: 5.69 µM | TGI [37]: 54.4 µM | GI50 [38]: 7.19 µM | TGI [38]: > 85.3 µM | GI50 [39]: 0.94 µM | TGI [39]: 11.1 µM | GI50 [40]: 6.76 µM | TGI [40]: 22.9 µM | GI50 [41]: 7.1 µM | TGI [41]: 41.2 µM | GI50 [42]: 6.7 µM | TGI [42]: > 61.8 µM | GI50 [43]: 2.81 µM | TGI [43]: 17.5 µM | GI50 [44]: 5.88 µM | TGI [44]: 61.1 µM | GI50 [45]: 1.12 µM | TGI [45]: 2.9 µM | GI50 [46]: 1.04 µM | GI50 [47]: 3.13 µM | TGI [47]: 14.2 µM | GI50 [48]: 1.87 µM | TGI [48]: 20.3 µM | GI50 [49]: 2.02 µM | TGI [49]: > 29.4 µM | GI50 [50]: 1.09 µM | TGI [50]: 6.69 µM | GI50 [51]: 6.54 µM | TGI [51]: 15.3 µM | GI50 [52]: 5.41 µM | TGI [52]: 13.7 µM | GI50 [53]: 1.03 µM | TGI [53]: 3.74 µM | GI50 [54]: 3.23 µM | TGI [54]: 13.6 µM | GI50 [55]: 10.6 µM | TGI [55]: > 65.9 µM | GI50 [56]: 3.8 µM | TGI [56]: > 53.9 µM | GI50 [57]: 3.78 µM | TGI [57]: 17.2 µM | GI50 [58]: 24.6 µM | TGI [58]: > 73.8 µM

O=C(ON=c1c2ccccc2ccc2ccccc12)c1ccccc1
TGI [1]: > 100 µM | TGI [2]: > 58.1 µM | TGI [3]: > 100 µM | TGI [4]: > 92.7 µM | TGI [5]: 62.1 µM | TGI [6]: > 89.1 µM | TGI [7]: > 100 µM | TGI [8]: 39 µM | TGI [9]: > 80.4 µM | TGI [10]: > 73.4 µM | TGI [11]: 91.4 µM | TGI [12]: 64.2 µM | TGI [13]: 73.5 µM | TGI [14]: > 87.7 µM | TGI [15]: 42.7 µM | TGI [16]: > 65.2 µM | TGI [17]: 79 µM | TGI [18]: 99.7 µM | TGI [19]: 29.8 µM | TGI [20]: > 62.1 µM | TGI [21]: > 84.1 µM | TGI [22]: 56.3 µM | TGI [23]: 33.5 µM | TGI [24]: 35.6 µM | TGI [25]: > 62.4 µM | TGI [26]: 67.5 µM | TGI [27]: 29.5 µM | TGI [28]: 57.9 µM | TGI [29]: 59.9 µM | TGI [30]: > 91.1 µM | TGI [31]: > 58 µM | TGI [32]: 16.2 µM | TGI [33]: > 86 µM | TGI [34]: 96.9 µM | TGI [35]: > 67.3 µM | TGI [36]: 30.5 µM | TGI [37]: > 68.9 µM | TGI [38]: 56.3 µM | TGI [39]: > 67.7 µM | TGI [40]: 93.4 µM | TGI [41]: 35.7 µM | TGI [42]: 57.4 µM | TGI [43]: > 74.2 µM | TGI [44]: > 100 µM | TGI [45]: 23.6 µM | TGI [46]: > 93 µM | TGI [47]: 34.1 µM | TGI [48]: 45.5 µM | TGI [49]: > 95.9 µM | TGI [50]: > 76 µM | TGI [51]: 32.8 µM | TGI [52]: 50.5 µM | TGI [53]: 32.4 µM | TGI [54]: 50.3 µM | TGI [55]: > 100 µM | TGI [56]: 47.3 µM | TGI [57]: 43.3 µM | TGI [58]: 59 µM
